In series [1] the test system is HCT-116 colorectal cancer cell line. In words: CCK-8 proliferation inhibition. It is filed as cell-based. The settings on record: Homo sapiens, HCT-116, 72 h, read-out: HCT116 inhibition rate/%. In a few lines: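 Proliferation over 72 hours of compound treatment was measured with CCK-8 against a 1‰ DMSO control.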
Series [2] concerns methemoglobin in blood samples of three healthy volunteers. In words: Toxicity on methemoglobin in vitro (whole blood with S9 and NADPH, absorbance at 630 nm). Format: cell-based, human. The settings on record: for MetHb % (n = 3): 500 μM compound, whole blood + S9 + NADPH, 5 hours at 37° C.; for probability of methemoglobin formation in blood compared with the control drugs LBM415 and GSK1322322: toxicity test in vitro, in words. How it is done: Because PDF inhibitors such as LBM415 and GSK1322322 can produce active species such as aromatic hydroxylamine and aromatic hydrazines in metabolic process, and cause human methemoglobinemia. To this end, continuous wavelength method was adopted in this invention to scan the absorption spectrum of blood samples in the wavelength range of 500 to 700 nm in the ultraviolet-visible spectrophotometer, and the contents of methemoglobin in blood samples of three healthy volunteers were calculated, after being effected by the synthesized compounds.
Experimental materials: Nicotinamide adenine dinucleotide phosphate (NADPH) reduction system: glucose-6-disodium phosphate, nicotinamide adenine dinucleoside phosphate and glucose-6-phosphate dehydrogenase (purchased from Shanghai yuanye Bio-Technology Co., Ltd) were added to 1 mL of phosphate buffer solution (PBS, pH 7.4), and the mixture was shaked in a shaker type water bath at 37° C. for 10 min, and then cooled to 0° C. Mixed human hepatocytes fraction S9 was purchased from Xenotech (20 mg S9 protein/1 mL suspension medium). Compounds were prepared to stock solution at a concentration of 50 mM, which was stored at −20° C. for use. Dapsone was used as positive control experimental reagent, which was purchased from Sigma Aldrich. 1% w/v triton X-100 was self-prepared. Blood samples were collected using Vacutainer tubes containing EDTA anticoagulants (BD, Franklin Lakes, USA), which were sampled from three healthy volunteers and used immediately after sampling.
Preparation of incubation system for blood samples and drugs: 250 μL of incubation system was consist of 220 μL of whole blood, 25 μL of S9 (final concentration: 2 mg S9 protein/mL incubation solution), 2.5 μL of NADPH form system (final concentration: 10 mM G-6-P, 1 mM NADP, 7.5 Units/mL) and 2.5 μL of stock solution of a compound (final concentration 500 μM). […] of incubation system was placed in an Eppendorf tube and incubated for 5 hours at 37° C. in water bath.
Determination of the content of methemoglobin: 60 μL of an incubated sample was taken and lysed with 3.0 mL of 1% Triton X-100. The content of methemoglobin (MetHb) was measured by an ultraviolet-visible spectrophotometer, with the Triton X-100 solution used as blank control. A sample was placed in a cuvette, 1 minute later, the spectrums of the sample in the wavelength range from 500 nm to 700 nm were recorded. The sample was added with 2 mg of potassium ferricyanide, and was allowed to stay stationary for 2 minutes for completely oxidization of ferrous iron in the sample, and standard spectrum of methemoglobin with saturated potassium ferricyanide. The percentage of methemoglobin formation (MetHb %) was obtained by the ratio of absorbance at 630 nm. MetHb %=(A′−AB′)/AM′, wherein, A′ was the total absorbance of the sample at 630 nm, AB′ was the base absorbance of the reduced blood in the sample at 630 nm, and AM′ was the absorbance of oxidized blood with saturated potassium ferricyanide at 630 nm.

Series [3] relates to Enterococcus faecalis (EFA). In words: MIC, two-fold agar dilution (CLSI), clinical isolates. Format: cell-based. In a few lines:
(§1)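 MIC values come from two-fold agar dilution run per CLSI antimicrobial susceptibility testing procedure.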

In series [4] the test system is Escherichia coli (including ESBLs, non-ESBLs). The description is as above. It is filed as cell-based. The method, boiled down:
as §1

For series [5], the system named is methicillin-resistant Staphylococcus aureus (MRSA). Described as above. It is filed as cell-based. The method, boiled down: as §1
The subject of series [6] is methicillin-resistant Staphylococcus epidermidis (MRSE). Described as above. Format: cell-based. In a few lines: as §1
For series [7], the system named is methicillin-sensitive Staphylococcus aureus (MSSA). Described as above. Format: cell-based. The method, boiled down: as §1
For series [8], the system named is methicillin-sensitive Staphylococcus epidermidis (MSSE). The description is as above. It is filed as cell-based. The method, boiled down:
as §1

[9] abbreviates: strain printed MRSA 14-1 (second line of that name, r23, before MRSE 14-2).

The structures appear in SMILES notation. ≈ marks a conversion by molar mass, not a printed value. Where only a bound is given, the exact number is not on record here.

Results on 3 compounds are retold here after patent US10738028B2, “Spiro three-membered ring, spiro five-membered ring peptide deformylase inhibitor and use thereof in antibacteria and anti-tumor” (priority 2016, dated 2020).

For the compound `CCCC[C@H](CN(O)C=O)C(=O)N1CC2(CC2)C[C@H]1C(=O)Nc1cccc(-c2cccnc2)c1` [Example 7, (S)-5-((R)-2-((N-hydroxyformamido)methyl)hexylcarbonyl)-N-(3-(pyridin-3-yl)phenyl)-5-5-azaspiro[2.4]heptane-6-amide], in series [1], the inhibition at 30 µM came to 23%. Further, in series [2], the “MetHb % (n = 3)” value is given as 2.24 ± 0.05%; the “probability of methemoglobin formation in blood compared with the control drugs LBM415 and GSK1322322” value is listed as “lower probability of methemoglobin formation in blood”.
`CCCC[C@H](CN(O)C=O)C(=O)N1CC2(CC2)C[C@H]1C(=O)Nc1cccc(Nc2ncccn2)c1` [Example 8]: the MIC (anti-bacterial activity) worked out at 0.5 µg/mL (≈ 1.04 µM) in series [3] (strain EFA 14-1); 1 µg/mL (≈ 2.08 µM) in series [3] (strain EFA 14-2); 1 µg/mL (≈ 2.08 µM) in series [3] (strain EFA 14-3); 1 µg/mL (≈ 2.08 µM) in series [3] (strain EFA 14-5); 1 µg/mL (≈ 2.08 µM) in series [4] (strain ECO+ 14-1); 64 µg/mL (≈ 133 µM) in series [4] (strain ECO+ 14-2). Also, the MIC (anti-bacterial activity) came to 128 µg/mL (≈ 266 µM) in series [4] (strain ECO− 14-1); 128 µg/mL (≈ 266 µM) in series [4] (strain ECO− 14-2); 0.25 µg/mL (≈ 0.52 µM) in series [5] (strain MRSA 14-1); 0.25 µg/mL (≈ 0.52 µM) in series [5] (strain MRSA 14-2); 0.25 µg/mL (≈ 0.52 µM) in series [5] (strain MRSA 14-4); 0.125 µg/mL (≈ 0.26 µM) in series [5] (strain MRSA 14-5). The MIC (anti-bacterial activity) was 0.125 µg/mL (≈ 0.26 µM) in series [5] (setting [9]); 0.25 µg/mL (≈ 0.52 µM) in series [6] (strain MRSE 14-2); 0.06 µg/mL (≈ 0.125 µM) in series [6] (strain MRSE 14-3); 0.25 µg/mL (≈ 0.52 µM) in series [6] (strain MRSE 14-4); 0.25 µg/mL (≈ 0.52 µM) in series [7] (strain MSSA 14-1); 0.25 µg/mL (≈ 0.52 µM) in series [7] (strain MSSA 14-2). The MIC (anti-bacterial activity) in series [7] (strain MSSA 14-3) stood at 0.25 µg/mL (≈ 0.52 µM); in series [7] (strain MSSA 14-4) it was 0.125 µg/mL (≈ 0.26 µM); in series [8] (strain MSSE 14-1), 0.125 µg/mL (≈ 0.26 µM); in series [8] (strain MSSE 14-2), 0.25 µg/mL (≈ 0.52 µM); in series [8] (strain MSSE 14-3), 0.125 µg/mL (≈ 0.26 µM); in series [8] (strain MSSE 14-4), 0.25 µg/mL (≈ 0.52 µM). Also, the inhibition at 30 µM in series [1] came out at 11%. For the same compound, in series [2], the “MetHb % (n = 3)” value came out at 4.12 ± 0.07%. The “probability of methemoglobin formation in blood compared with the control drugs LBM415 and GSK1322322” value in series [2] was “lower probability of methemoglobin formation in blood”.
On to `CCCC[C@H](CN(O)C=O)C(=O)N1CC2(CC2)C[C@H]1C(=O)Nc1nccc(-c2cccnc2)n1` [Example 9], for which the MIC (anti-bacterial activity) in series [3] (strain EFA 14-1) is 0.5 µg/mL (≈ 1.07 µM); in series [3] (strain EFA 14-2) it was 0.5 µg/mL (≈ 1.07 µM); in series [3] (strain EFA 14-3), 1 µg/mL (≈ 2.14 µM); in series [3] (strain EFA 14-5) it was 0.5 µg/mL (≈ 1.07 µM); in series [4] (strain ECO+ 14-1), 2 µg/mL (≈ 4.29 µM); in series [4] (strain ECO+ 14-2), > 64 µg/mL. In addition, the MIC (anti-bacterial activity) was > 64 µg/mL in series [4] (strain ECO− 14-1); > 64 µg/mL in series [4] (strain ECO− 14-2); 2 µg/mL (≈ 4.29 µM) in series [5] (strain MRSA 14-1); 0.5 µg/mL (≈ 1.07 µM) in series [5] (strain MRSA 14-2); 2 µg/mL (≈ 4.29 µM) in series [5] (strain MRSA 14-4); 0.25 µg/mL (≈ 0.536 µM) in series [5] (strain MRSA 14-5). Moreover, the MIC (anti-bacterial activity) amounted to 0.25 µg/mL (≈ 0.536 µM) in series [5] (setting [9]); 0.25 µg/mL (≈ 0.536 µM) in series [6] (strain MRSE 14-2); 0.125 µg/mL (≈ 0.268 µM) in series [6] (strain MRSE 14-3); 0.5 µg/mL (≈ 1.07 µM) in series [6] (strain MRSE 14-4); 0.25 µg/mL (≈ 0.536 µM) in series [7] (strain MSSA 14-1); 0.5 µg/mL (≈ 1.07 µM) in series [7] (strain MSSA 14-2). Moreover, the MIC (anti-bacterial activity) in series [7] (strain MSSA 14-3) came out at 0.5 µg/mL (≈ 1.07 µM); in series [7] (strain MSSA 14-4), 0.25 µg/mL (≈ 0.536 µM); in series [8] (strain MSSE 14-1), 0.125 µg/mL (≈ 0.268 µM); in series [8] (strain MSSE 14-2), 0.5 µg/mL (≈ 1.07 µM); in series [8] (strain MSSE 14-3), 0.25 µg/mL (≈ 0.536 µM); in series [8] (strain MSSE 14-4), 0.5 µg/mL (≈ 1.07 µM). In addition, the inhibition at 30 µM in series [1] worked out at 6%. Also, the “MetHb % (n = 3)” value in series [2] is given as 1.13 ± 0.06%. Further, in series [2], the “probability of methemoglobin formation in blood compared with the control drugs LBM415 and GSK1322322” value was “lower probability of methemoglobin formation in blood”.
